Measurements taken from PubChem BioAssay AID256 (DTP/NCI, 2004).
“And” between values parts separate entries of the source, which are not always exact repeats. Equal values may be shown once. Toxic doses and inconclusive results are not listed.

Tested on: CD2F1 mice, L1210 leukemia ip, survival T/C
Experiment: NCI In Vivo Anticancer Drug Screen. Data for tumor model L1210 Leukemia (intraperitoneal) in CD2F1 (CDF1) mice
Conditions: higher = longer survival
How it was run: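 Read-out first: treated-group measurement over vehicle-control measurement, expressed as a ratio. Animals bore a transplanted tumor line and were dosed with compound or vehicle.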

[1] = endpoint: mean survival time, dose: 100.0 mg/kg/injection, schedule: Q01DX001 (ip), vehicle: saline with Tween-80
[2] = endpoint: mean survival time, dose: 100.0 mg/kg/injection, schedule: Q01DX009 (ip), vehicle: saline with Tween-80
[3] = endpoint: mean survival time, dose: 100.0 mg/kg/injection, schedule: Q04DX002 (ip), vehicle: saline with Tween-80
[4] = endpoint: mean survival time, dose: 100.0 mg/kg/injection, schedule: Q04DX003 (ip), vehicle: saline with Tween-80
[5] = endpoint: mean survival time, dose: 200.0 mg/kg/injection, schedule: Q01DX001 (ip), vehicle: saline with Tween-80
[6] = endpoint: mean survival time, dose: 200.0 mg/kg/injection, schedule: Q01DX009 (ip), vehicle: saline with Tween-80
[7] = endpoint: mean survival time, dose: 200.0 mg/kg/injection, schedule: Q04DX002 (ip), vehicle: saline with Tween-80
[8] = endpoint: mean survival time, dose: 200.0 mg/kg/injection, schedule: Q04DX003 (ip), vehicle: saline with Tween-80
[9] = endpoint: mean survival time, dose: 400.0 mg/kg/injection, schedule: Q01DX001 (ip), vehicle: saline with Tween-80
[10] = endpoint: mean survival time, dose: 400.0 mg/kg/injection, schedule: Q01DX009 (ip), vehicle: saline with Tween-80
[11] = endpoint: mean survival time, dose: 400.0 mg/kg/injection, schedule: Q04DX002 (ip), vehicle: saline with Tween-80
[12] = endpoint: mean survival time, dose: 400.0 mg/kg/injection, schedule: Q04DX003 (ip), vehicle: saline with Tween-80
[13] = endpoint: mean survival time, dose: 100.0 mg/kg/injection, schedule: Q04DX003 (ip), vehicle: saline
[14] = endpoint: mean survival time, dose: 200.0 mg/kg/injection, schedule: Q04DX003 (ip), vehicle: saline
[15] = endpoint: mean survival time, dose: 400.0 mg/kg/injection, schedule: Q04DX003 (ip), vehicle: saline
[16] = endpoint: mean survival time, dose: 50.0 mg/kg/injection, schedule: Q01DX009 (ip), vehicle: saline with Tween-80

N#C/C(=C\C=C\c1cccc([N+](=O)[O-])c1)c1ccccc1
T/C [1]: 96 % of control
T/C [2]: 100 % of control and 103 % of control
T/C [3]: 102 % of control
T/C [4]: 97 % of control
T/C [5]: 105 % of control
T/C [6]: 96 % of control and 107 % of control
T/C [7]: 98 % of control
T/C [8]: 105 % of control
T/C [9]: 97 % of control
T/C [10]: 94 % of control and 100 % of control
T/C [11]: 100 % of control
T/C [12]: 94 % of control

CC(OC1OC(C(=O)O)C(O)C(O)C1O)c1ccccc1 (stereo unspecified)
T/C [13]: 98 % of control
T/C [14]: 98 % of control
T/C [15]: 93 % of control

O=C(Nc1ccc(C2=NCCN2)cc1)c1ccc(C(=O)Nc2ccc(C3=NCCN3)cc2)cc1
T/C (endpoint: mean survival time, dose: 1.25 mg/kg/injection, schedule: Q01DX008 (iv), vehicle: other): 103 % of control
T/C (endpoint: mean survival time, dose: 2.5 mg/kg/injection, schedule: Q01DX008 (iv), vehicle: other): 103 % of control
T/C (endpoint: mean survival time, dose: 5.0 mg/kg/injection, schedule: Q01DX008 (iv), vehicle: other): 108 % of control
T/C (endpoint: mean survival time, dose: 50.0 mg/kg/injection, schedule: Q04DX003 (ip), vehicle: water): 112 % of control
T/C (endpoint: mean survival time, dose: 100.0 mg/kg/injection, schedule: Q01DX007 (ip), vehicle: water): 153 % of control
T/C (endpoint: mean survival time, dose: 100.0 mg/kg/injection, schedule: Q04DX003 (ip), vehicle: water): 118 % of control
T/C (endpoint: mean survival time, dose: 200.0 mg/kg/injection, schedule: Q01DX007 (ip), vehicle: water): 170 % of control
T/C (endpoint: mean survival time, dose: 200.0 mg/kg/injection, schedule: Q01DX009 (ip), vehicle: water): 186 % of control

O=S(=O)(N=N/C=C1\C=CC=CN1O)c1cccs1
T/C (endpoint: mean survival time, dose: 12.5 mg/kg/injection, schedule: Q01DX009 (ip), vehicle: saline with Tween-80): 95 % of control
T/C (endpoint: mean survival time, dose: 25.0 mg/kg/injection, schedule: Q01DX009 (ip), vehicle: saline with Tween-80): 101 % of control
T/C [16]: 103 % of control
T/C [2]: 109 % of control
T/C [6]: 104 % of control

CC(S(N)(=O)=O)S(N)(=O)=O
T/C [1]: 105 % of control
T/C [5]: 102 % of control
T/C [9]: 94 % of control

CCN(CC)CC(=O)Nc1c(Cl)cccc1Cl
T/C (endpoint: mean survival time, dose: 100.0 mg/kg/injection, schedule: Q01DX009 (ip), vehicle: saline): 98 % of control
T/C [13]: 104 % of control
T/C (endpoint: mean survival time, dose: 200.0 mg/kg/injection, schedule: Q01DX009 (ip), vehicle: saline): 92 % of control
T/C [14]: 108 % of control
T/C [15]: 102 % of control

Cc1ccccc1N=C(N)Nc1ccccc1C
T/C (endpoint: mean survival time, dose: 10.0 mg/kg/injection, schedule: Q04DX003 (ip), vehicle: saline with Tween-80): 98 % of control

COc1ccc(CC#N)cc1OC
T/C (endpoint: mean survival time, dose: 3.75 mg/kg/injection, schedule: Q01DX009 (ip), vehicle: saline with Tween-80): 95 % of control
T/C (endpoint: mean survival time, dose: 3.75 mg/kg/injection, schedule: Q04DX003 (ip), vehicle: saline with Tween-80): 107 % of control
T/C (endpoint: mean survival time, dose: 7.5 mg/kg/injection, schedule: Q01DX009 (ip), vehicle: saline with Tween-80): 95 % of control
T/C (endpoint: mean survival time, dose: 7.5 mg/kg/injection, schedule: Q04DX003 (ip), vehicle: saline with Tween-80): 103 % of control
T/C (endpoint: mean survival time, dose: 15.0 mg/kg/injection, schedule: Q01DX009 (ip), vehicle: saline with Tween-80): 95 % of control
T/C (endpoint: mean survival time, dose: 15.0 mg/kg/injection, schedule: Q04DX003 (ip), vehicle: saline with Tween-80): 103 % of control

CC(C)CC(N)C(=O)O (stereo unspecified) (tested in a mixture with another compound)
T/C (endpoint: median survival time, dose: 3.13 mg/kg/injection, schedule: Q04DX002 (ip), vehicle: saline): 111 % of control and 108 % of control
T/C (endpoint: median survival time, dose: 6.25 mg/kg/injection, schedule: Q04DX002 (ip), vehicle: saline): 105 % of control and 100 % of control and 111 % of control
T/C (endpoint: median survival time, dose: 12.5 mg/kg/injection, schedule: Q04DX002 (ip), vehicle: saline): 100 % of control and 105 % of control
T/C (endpoint: median survival time, dose: 25.0 mg/kg/injection, schedule: Q04DX002 (ip), vehicle: saline): 100 % of control and 105 % of control
T/C (endpoint: median survival time, dose: 50.0 mg/kg/injection, schedule: Q04DX002 (ip), vehicle: saline): 111 % of control and 100 % of control and 108 % of control
T/C (endpoint: median survival time, dose: 100.0 mg/kg/injection, schedule: Q04DX002 (ip), vehicle: saline): 105 % of control
T/C (endpoint: median survival time, dose: 200.0 mg/kg/injection, schedule: Q04DX002 (ip), vehicle: saline): 108 % of control
T/C (endpoint: median survival time, dose: 400.0 mg/kg/injection, schedule: Q04DX002 (ip), vehicle: saline): 96 % of control

CCOC(=O)C12CCC(C1=O)C(C)(O)CC2 (stereo unspecified)
T/C (endpoint: mean survival time, dose: 50.0 mg/kg/injection, schedule: Q01DX009 (ip), vehicle: acetone): 92 % of control
T/C (endpoint: mean survival time, dose: 100.0 mg/kg/injection, schedule: Q01DX009 (ip), vehicle: acetone): 90 % of control
T/C (endpoint: mean survival time, dose: 200.0 mg/kg/injection, schedule: Q01DX009 (ip), vehicle: acetone): 94 % of control

CCN(CC)CCOc1ccc(NC(=O)c2ccccc2)cc1
T/C (endpoint: mean survival time, dose: 6.25 mg/kg/injection, schedule: Q04DX003 (ip), vehicle: saline): 101 % of control
T/C (endpoint: mean survival time, dose: 12.5 mg/kg/injection, schedule: Q04DX003 (ip), vehicle: saline): 101 % of control
T/C (endpoint: mean survival time, dose: 25.0 mg/kg/injection, schedule: Q04DX003 (ip), vehicle: saline): 104 % of control

Cc1ccc(NC(=O)OCCOc2ccc(Cl)cc2)cc1[N+](=O)[O-]
T/C [16]: 96 % of control
T/C [2]: 88 % of control
T/C [6]: 88 % of control

CC(C)CC(NC(=O)CCl)C(=O)O (stereo unspecified)
T/C [2]: 101 % of control
T/C [4]: 97 % of control
T/C [6]: 96 % of control
T/C [8]: 98 % of control
T/C [10]: 101 % of control
T/C [12]: 96 % of control

N#CCCCC1(CCCC#N)OCCO1
T/C (endpoint: mean survival time, dose: 50.0 mg/kg/injection, schedule: Q04DX003 (ip), vehicle: saline): 100 % of control
T/C [13]: 102 % of control
T/C [14]: 107 % of control

C/C=C/C=C/C(=O)c1ccc(OC)cc1O
T/C (endpoint: mean survival time, dose: 50.0 mg/kg/injection, schedule: Q04DX002 (ip), vehicle: saline with Tween-80): 86 % of control
T/C [3]: 101 % of control
T/C [7]: 89 % of control
T/C [11]: 89 % of control

CN1CCOc2ccccc2OCCOCCOc2ccccc2OCC1
T/C (endpoint: mean survival time, dose: 100.0 mg/kg/injection, schedule: Q01DX009 (ip), vehicle: Klucel (hydroxypropylcellulose) (HPC)): 105 % of control
T/C (endpoint: mean survival time, dose: 200.0 mg/kg/injection, schedule: Q01DX009 (ip), vehicle: Klucel (hydroxypropylcellulose) (HPC)): 106 % of control

Cc1ccc(O[Si](C)(C)C)cc1
T/C [2]: 100 % of control
T/C [4]: 103 % of control
T/C [8]: 87 % of control
T/C [12]: 89 % of control

CCOc1cccc(Cc2c[nH]c(=O)[nH]c2=O)c1
T/C [1]: 90 % of control
T/C [5]: 100 % of control
T/C [9]: 89 % of control

O=S1CCS(=O)CC1 (stereo unspecified)
T/C (endpoint: mean survival time, dose: 100.0 mg/kg/injection, schedule: Q01DX001 (ip), vehicle: saline): 96 % of control
T/C (endpoint: mean survival time, dose: 200.0 mg/kg/injection, schedule: Q01DX001 (ip), vehicle: saline): 93 % of control
T/C (endpoint: mean survival time, dose: 400.0 mg/kg/injection, schedule: Q01DX001 (ip), vehicle: saline): 98 % of control

C1CN2CCOB(O1)OCC2
T/C [13]: 94 % of control
T/C [14]: 98 % of control
T/C [15]: 93 % of control

N#Cc1cn(C2OC(CO)C(O)C2O)c2ncnc(N)c12 (stereo unspecified)
T/C (endpoint: mean survival time, dose: 0.06 mg/kg/injection, schedule: Q01DX009 (ip), vehicle: saline): 106 % of control
T/C (endpoint: mean survival time, dose: 0.13 mg/kg/injection, schedule: Q01DX009 (ip), vehicle: saline): 110 % of control
T/C (endpoint: mean survival time, dose: 0.5 mg/kg/injection, schedule: Q01DX009 (ip), vehicle: saline): 111 % of control
T/C (endpoint: mean survival time, dose: 1.0 mg/kg/injection, schedule: Q01DX009 (ip), vehicle: saline): 95 % of control
T/C (endpoint: median survival time, dose: 0.1 mg/kg/injection, schedule: Q06HX024 (ip), vehicle: saline): 100 % of control
T/C (endpoint: median survival time, dose: 0.2 mg/kg/injection, schedule: Q06HX024 (ip), vehicle: saline): 102 % of control
T/C (endpoint: median survival time, dose: 0.4 mg/kg/injection, schedule: Q06HX024 (ip), vehicle: saline): 109 % of control

CNC1CC2CCC1(C)C2(C)C (stereo unspecified)
T/C (endpoint: mean survival time, dose: 25.0 mg/kg/injection, schedule: Q04DX002 (ip), vehicle: saline): 101 % of control
T/C (endpoint: mean survival time, dose: 50.0 mg/kg/injection, schedule: Q04DX002 (ip), vehicle: saline): 112 % of control
T/C (endpoint: mean survival time, dose: 100.0 mg/kg/injection, schedule: Q04DX002 (ip), vehicle: saline): 96 % of control

CCCC(C)(C)c1ccc(Cl)cc1
T/C [16]: 96 % of control
T/C [2]: 104 % of control
T/C [6]: 104 % of control

O=C(O)c1ccc(C(=O)O)c2c(C(=O)O)ccc(C(=O)O)c12
T/C [2]: 95 % of control
T/C [13]: 97 % of control
T/C [6]: 90 % of control
T/C [14]: 96 % of control
T/C [15]: 93 % of control
